Assay results published in US20110172171A1, “TAURINE OR TAURINE-LIKE SUBSTANCES FOR THE PREVENTION OF BRAIN OEDEMA” (priority 2008, published 2011).
“And” between values parts separate entries of the source, which are not always exact repeats. Equal values may be shown once. “Also recorded” adds a separate entry of the source.

Tested on: white matter adjacent to the cerebellar nuclei, and the nuclei
Assay: Vigabatrin-induced brain vacuolation in rats, histology of cerebellar sections scored by light microscopy
Format: in vivo, Wistar rats
Parameters: key to vacuolation score (grade) of cerebellum: 1: No or occasional individual vacuoles in perinuclear white matter.; 2: Mild to moderate regional vacuolation of perinuclear white matter, sometimes extending into nucleus.; 3: Extensive, widespread vacuolation of perinuclear white matter, often with involvement of adjacent nuclear regions. Vacuolation may extend to folial white matter
Details: for vacuolation score (grade) of cerebellum: blinded scoring; for vacuolation in the brain tissue (histological appearance): cerebellar sections
Experimental: Animal treatments: As described previously (Duboc A. et al. 2004; Izumi Y. et al. 2004), Wistar rats Rj Wi IOPS Han were purchased from Janvier (Le Genest-St-Isle, France) at between six and seven weeks of age. vigabatrin dissolved in 0.9% NaC1 was administered at 40mg (125 mg/ml, 0.32m1) to rats by daily intraperitoneal injection for 65 days. These daily doses (rats: 200mg/kg) are in-line with those described for the treatment of epilepsy (adult patients: […]; children: 50-75mg/kg; or infants: 100-150 mg/kg) (Chiron C. et al. 1997; Lux AL. et al. 2004; Aicardi J. et al. 1996). Taurine supplementation was given in drinking water at a concentration of 0.1M.
Histology: Rats were anesthetized by intraperitoneal injection (0.8 to 1.2 ml/kg) of a solution containing ketamine (40 mg/ml) and xylazine (4 mg/ml Rompum). Rat heads were removed and an opening created in the calvarium. These were then immersion fixed in 4% buffered formol (T/02170015, MMFrance) and then placed in phosphate buffered saline. Brains were then removed from the skulls and placed in 10% neutral buffered formalin. Brains were trimmed and their cerebellar nuclei placed in 10% buffered formalin and embedded in paraffin. Sections of the cerebellar nuclei were stained with hematoxylin and eosin.
Vacuolation of cerebellum was assessed by light microscopy, with the region of emphasis being the white matter adjacent to the cerebellar nuclei, and the nuclei. Vacuolation was scored as follows.
1- No or occasional individual vacuoles in perinuclear white matter.
2- Mild to moderate regional vacuolation of perinuclear white matter, sometimes extending into nucleus.
3- Extensive, widespread vacuolation of perinuclear white matter, often with involvement of adjacent nuclear regions. Vacuolation may extend to folial white matter

SMILES: C=CC(N)CCC(=O)O (stereo not shown) [vigabatrin, 4-amino-5-hexenoic acid, reference compound]
- vacuolation score (grade) of cerebellum (rats, vigabatrin 40 mg (200mg/kg) daily intraperitoneal injection for 65 days, n=7): 3
- vacuolation in the brain tissue (histological appearance) (vigabatrin-treated rats, FIG. 1B): extensive; also recorded: a great number of vacuoles

SMILES: NCCS(=O)(=O)O [taurine, 2-aminoethanesulfonic acid]
- vacuolation score (grade) of cerebellum (vigabatrin-treated rats (200mg/kg daily i.p., 65 days) with taurine 0.1M in drinking water, n=7 (grade 1 n=3, grade 2 n=4), 200 mg/kg): 1 and 2
- vacuolation in the brain tissue (histological appearance) (vigabatrin-treated rats supplemented with taurine (0.1M in drinking water), FIG. 1C): mild and vacuoles were present in some animals but appeared at a much lower density
